Source: publication PMC9687209 (2022)

Key:
[1] = system: Random Sequence (DNA, single strand) ATTGGCACTCCACGCATAGGATTCCGGCTAATCGACTGACTGCCGGTACGATGCAGTCAGCCTATGCGTGCTACCGTGAA; experiment: BLI; conditions: 177.7 mM Na+, 0.492 mM Mg2+; 0.2 g/L KCl, 0.2 g/L KH2PO4, 0.1 g/L CaCl2; selection buffer, pH 7.4, 25 °C; NB [sic]; 6.25 μM tested in Figure 4
[2] = system: C1-b (DNA, aptamer) GGTGTGTACACC; experiment: BLI; conditions: 177.7 mM Na+, 0.492 mM Mg2+; 0.2 g/L KCl, 0.2 g/L KH2PO4, 0.1 g/L CaCl2; selection buffer (NaCl/phosphate), pH 7.4, 25 °C
[3] = system: C1-a (DNA, aptamer) CAACATGATGTTCCGTCATTTTG; experiment: BLI; conditions: 177.7 mM Na+, 0.492 mM Mg2+; 0.2 g/L KCl, 0.2 g/L KH2PO4, 0.1 g/L CaCl2; selection buffer (NaCl/phosphate), pH 7.4, 25 °C
[4] = system: C87 (DNA, aptamer) ATTGGCACTCCACGCATAGGGGAAGCTGCTCTCATCAATAAAAAATGAGACGGAGGTTACCCTATGCGTGCTACCGTGAA; experiment: BLI; conditions: 177.7 mM Na+, 0.492 mM Mg2+; 0.2 g/L KCl, 0.2 g/L KH2PO4, 0.1 g/L CaCl2; selection buffer (NaCl/phosphate), pH 7.4, 25 °C
[5] = system: C1-s (DNA, aptamer) CCAACATGATGTTCCGTCATTTTGAGGTGTGTACACCGTG; experiment: BLI; conditions: 177.7 mM Na+, 0.492 mM Mg2+; 0.2 g/L KCl, 0.2 g/L KH2PO4, 0.1 g/L CaCl2; selection buffer (NaCl/phosphate), pH 7.4, 25 °C
[6] = system: C1-d (DNA, aptamer) CCGAGGTGTGTACACCGTG; experiment: BLI; conditions: 177.7 mM Na+, 0.492 mM Mg2+, 0.2 g/L KCl, 0.2 g/L KH2PO4, 0.1 g/L CaCl2, pH 7.4, 25 °C
[7] = system: C100/htC4 (DNA, aptamer) ATTGGCACTCCACGCATAGGGAATGGACCCGGTATAATTCCCTCAAGAGTGCCAATTTCACCTATGCGTGCTACCGTGAA; experiment: BLI; conditions: 177.7 mM Na+, 0.492 mM Mg2+; 0.2 g/L KCl, 0.2 g/L KH2PO4, 0.1 g/L CaCl2; selection buffer (NaCl/phosphate), pH 7.4, 25 °C
[8] = system: C53 (DNA, aptamer) ATTGGCACTCCACGCATAGGGTAAAGTACGTATGTCATGCACATGCCGTATTCTCTTTGCCCTATGCGTGCTACCGTGAA; experiment: BLI; conditions: 177.7 mM Na+, 0.492 mM Mg2+; 0.2 g/L KCl, 0.2 g/L KH2PO4, 0.1 g/L CaCl2; selection buffer (NaCl/phosphate), pH 7.4, 25 °C; NB [sic]; highest concentration not stated
[9] = system: C1-d (DNA, aptamer) CCGAGGTGTGTACACCGTG; experiment: BLI response, four-parameter logistic fit; conditions: 177.7 mM Na+, 0.492 mM Mg2+; 0.2 g/L KCl, 0.2 g/L KH2PO4, 0.1 g/L CaCl2; selection buffer, pH 7.4, 25 °C; calibration curve 0.625-30 μM DA; Hill slope 1.351
[10] = system: C1-c (DNA, aptamer) CCAACATGATGTTCCGTCATTTTGAGCGTG; experiment: BLI; conditions: 177.7 mM Na+, 0.492 mM Mg2+; 0.2 g/L KCl, 0.2 g/L KH2PO4, 0.1 g/L CaCl2; selection buffer (NaCl/phosphate), pH 7.4, 25 °C
[11] = system: C66 (DNA, aptamer) ATTGGCACTCCACGCATAGGGGTGGTCTTCTGGGTAATCCCCGACTACCCTTATGCCGGCCCTATGCGTGCTACCGTGAA; experiment: BLI; conditions: 177.7 mM Na+, 0.492 mM Mg2+; 0.2 g/L KCl, 0.2 g/L KH2PO4, 0.1 g/L CaCl2; selection buffer (NaCl/phosphate), pH 7.4, 25 °C
[12] = system: C58/htC3 (DNA, aptamer) ATTGGCACTCCACGCATAGGCCAAGGTGTCAATCTTGAATAGCTGTGTAACGTCTATGTGCCTATGCGTGCTACCGTGAA; experiment: BLI; conditions: 177.7 mM Na+, 0.492 mM Mg2+; 0.2 g/L KCl, 0.2 g/L KH2PO4, 0.1 g/L CaCl2; selection buffer (NaCl/phosphate), pH 7.4, 25 °C
[13] = system: C12/htC2 (DNA, aptamer) ATTGGCACTCCACGCATAGGGACATCGAGAAGAATCCTGATACGACTTGGCTTTGCTGGCCCTATGCGTGCTACCGTGAA; experiment: BLI; conditions: 177.7 mM Na+, 0.492 mM Mg2+; 0.2 g/L KCl, 0.2 g/L KH2PO4, 0.1 g/L CaCl2; selection buffer (NaCl/phosphate), pH 7.4, 25 °C
[14] = system: C1/htC1 (DNA, aptamer) ATTGGCACTCCACGCATAGGCCAACATGATGTTCCGTCATTTTGAGGTGTGTACACCGTGCCTATGCGTGCTACCGTGAA; experiment: BLI; conditions: 177.7 mM Na+, 0.492 mM Mg2+; 0.2 g/L KCl, 0.2 g/L KH2PO4, 0.1 g/L CaCl2; selection buffer (NaCl/phosphate), pH 7.4, 25 °C
[15] = system: C116 (DNA, aptamer) ATTGGCACTCCACGCATAGGGATCTCATAACCAGTCTCTTTGACTGATGTTAGTAAGGTCCCTATGCGTGCTACCGTGAA; experiment: BLI; conditions: 177.7 mM Na+, 0.492 mM Mg2+; 0.2 g/L KCl, 0.2 g/L KH2PO4, 0.1 g/L CaCl2; selection buffer (NaCl/phosphate), pH 7.4, 25 °C
[16] = system: htC5 (DNA, aptamer) ATTGGCACTCCACGCATAGGGGAGGGCCGGTTGAACTGTAATGTGTAAACCACGCGCTACCCTATGCGTGCTACCGTGAA; experiment: BLI; conditions: 177.7 mM Na+, 0.492 mM Mg2+; 0.2 g/L KCl, 0.2 g/L KH2PO4, 0.1 g/L CaCl2; selection buffer (NaCl/phosphate), pH 7.4, 25 °C; NB [sic]; highest concentration not stated
[17] = system: C2 (DNA, aptamer) ATTGGCACTCCACGCATAGGGGATAACGGGTTGATGGTACTTCTATCTATCGCGTTGTGCCCTATGCGTGCTACCGTGAA; experiment: BLI; conditions: 177.7 mM Na+, 0.492 mM Mg2+; 0.2 g/L KCl, 0.2 g/L KH2PO4, 0.1 g/L CaCl2; selection buffer (NaCl/phosphate), pH 7.4, 25 °C

## C/C(=C/C=C/[C@@H](C)C(=O)O)[C@H]1CN[C@H](C(=O)O)[C@H]1CC(=O)O
[1]
  binding: no
[2]
  KD: 0.167 ± 0.00933 µM
[3]
  KD: 6.9 ± 0.628 µM
[4]
  KD: 5.04 µM
[5]
  KD: 1.5 ± 0.113 µM
[6]; selection buffer (NaCl/phosphate), kon 2.94 × 10^5 1/Ms, kdis 5.13 × 10^-2 1/s
  KD: 0.109 ± 0.00931 µM
[7]
  KD: 3.25 µM
[8]
  binding: no
[9]
  EC50: 12.57 µM
[10]
  KD: 4.9 ± 0.312 µM
[11]
  KD: 22.7 µM
[12]
  KD: 6.33 µM
[13]
  KD: 5.21 µM
[14]
  KD: 1.69 µM
[15]
  KD: 11.7 µM
[16]
  binding: no
[17]
  KD: 20.3 µM

## C=C1[C@@H](O)[C@@H]2O[C@]3(CC[C@H](/C=C/[C@@H](C)[C@@H]4CC(C)=C[C@@]5(O[C@H](C[C@@](C)(O)C(=O)O)CC[C@H]5O)O4)O3)CC[C@H]2O[C@@H]1[C@@H](O)C[C@H](C)[C@H]1O[C@@]2(CCCCO2)CC[C@H]1C
[6]; selection buffer, 6.25 μM tested
  binding: no
